Measurements: patent US20090298866A1, “Indole Compounds” (priority 2006, published 2009)
pIC50: −log10 of the molar value. Counter-ions that a name gives are not always drawn.

Legend:
human EP1 receptor [1] = target: T1, human EP1 receptor (Homo sapiens, UniProt P34995); assay: Binding assay for the human prostanoid EP1 receptor (competition with [3H]-PGE2); conditions: binding to human EP1 receptor, CHO-K1 membranes, [3H]-PGE2 3 nM; averages of a number of experiments
T1 construct: expressed in transfected cells; host or cells: CHO-K1
T1 sequence (P34995 1-402): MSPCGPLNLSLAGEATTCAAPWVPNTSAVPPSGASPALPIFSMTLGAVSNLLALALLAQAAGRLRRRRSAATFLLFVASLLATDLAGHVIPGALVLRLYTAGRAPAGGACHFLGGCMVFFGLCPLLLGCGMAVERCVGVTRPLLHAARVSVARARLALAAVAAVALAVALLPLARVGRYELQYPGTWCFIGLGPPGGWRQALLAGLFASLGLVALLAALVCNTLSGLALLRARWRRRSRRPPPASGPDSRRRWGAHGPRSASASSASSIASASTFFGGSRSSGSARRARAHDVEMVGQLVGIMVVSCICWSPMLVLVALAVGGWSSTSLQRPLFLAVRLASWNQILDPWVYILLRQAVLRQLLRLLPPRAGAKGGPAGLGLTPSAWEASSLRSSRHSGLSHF
Description: Competition assay using [^3H]-PGE2.
Compound potencies are determined using a radioligand binding assay. In this assay compound potencies are determined from their ability to compete with tritiated prostaglandin E2 ([^3H]-PGE2) for binding to the human EP1 receptor. This assay utilises Chinese hamster ovary-K1 (CHO-K1) cells into which a stable vector containing the EP1 cDNA has previously been transfected. Cells are cultured in suitable flasks containing culture medium such as DMEM:F-12 supplemented with 10% v/v foetal calf serum, 2 mM L-glutamine, 0.25 mg/ml geneticin, 10 μg/ml puromycin and 10 μM indomethacin.
Cells are detached from the culture flasks by incubation in calcium and magnesium free phosphate buffered saline containing 1 mM disodium ethylenediaminetetraacetic acid (Na2EDTA) and 10 μM indomethacin for 5 min. The cells are isolated by centrifugation at 250×g for 5 mins and suspended in an ice cold buffer such as 50 mM Tris, 1 mM Na2EDTA, 140 mM NaCl, 10 μM indomethacin (pH 7.4). The cells are homogenised using a Polytron tissue disrupter (2×10 s burst at full setting), centrifuged at 48,000×g for 20 mins and the pellet containing the membrane fraction is washed (optional) three times by suspension and centrifugation at 48,000×g for 20 mins. The final membrane pellet is suspended in an assay buffer such as 10 mM 2-[N-morpholino]ethanesulphonic acid, 1 mM Na2EDTA, 10 mM MgCl2 (pH 6). Aliquots are frozen at −80° C. until required.
For the binding assay the cell membranes, competing compounds and [^3H]-PGE2 (3 nM final assay concentration) are incubated in a final volume of 100 μl for 30 min at 30° C. All reagents are prepared in assay buffer. Reactions are terminated by rapid vacuum filtration over GF/B filters using a Brandell cell harvester. The filters are washed with ice cold assay buffer, dried and the radioactivity retained on the filters is measured by liquid scintillation counting in Packard TopCount scintillation counter.
The data are analysed using non linear curve fitting techniques to determine the concentration of compound producing 50% inhibition of specific binding (IC50).

human EP1 receptor [2] = target: T1, human EP1 receptor; assay: human EP1 calcium mobilisation assay; format: cell-based; conditions: human EP1, CHO-K1 cells, PGE2-induced calcium mobilisation; averages of a number of experiments; read-out: functional pKi (converted)
Description: Briefly, the antagonist properties of compounds are assessed by their ability to inhibit the mobilisation of intracellular calcium ([Ca^2+]i) in response to activation of EP1 or EP3 receptors by the natural agonist hormone prostaglandin E2 (PGE2). Increasing concentrations of antagonist reduce the amount of calcium that a given concentration of PGE2 can mobilise. The net effect is to displace the PGE2 concentration-effect curve to higher concentrations of PGE2. The amount of calcium produced is assessed using a calcium-sensitive fluorescent dye such as Fluo-4, AM and a suitable instrument such as a Fluorimetric Imaging Plate Reader (FLIPR). Increasing amounts of [Ca^2+]i produced by receptor activation increase the amount of fluorescence produced by the dye and give rise to an increasing signal. The signal may be detected using the FLIPR instrument and the data generated may be analysed with suitable curve-fitting software.
The human EP1 or EP3 calcium mobilisation assay (hereafter referred to as ‘the calcium assay’) utilises Chinese hamster ovary-K1 (CHO-K1) cells into which a stable (pCIN; BioTechniques 20 (1996): 102-110) vector containing either EP1 or EP3 cDNA has previously been transfected. Cells are cultured in suitable flasks containing culture medium such as DMEM:F-12 supplemented with 10% v/v foetal calf serum, 2 mM L-glutamine, 0.25 mg/ml geneticin, 100 μM flurbiprofen and 10 μg/ml puromycin.
For assay, cells are harvested using a proprietary reagent that dislodges cells such as Versene. Cells are re-suspended in a suitable quantity of fresh culture media for introduction into a 384-well plate. Following incubation for 24 hours at 37° C. the culture media is replaced with a medium containing Fluo-4 and the detergent pluronic acid, and a further incubation takes place. Concentrations of compounds are then added to the plate in order to construct concentration-effect curves. This may be performed on the FLIPR in order to assess the agonist properties of the compounds. Concentrations of PGE2 are then added to the plate in order to assess the antagonist properties of the compounds.
The data so generated may be analysed by means of a computerised curve-fitting routine. The concentration of compound that elicits a half-maximal inhibition of the calcium mobilisation induced by PGE2 (pIC50) may then be estimated.

Structure (SMILES)	pIC50 (human EP1 receptor [1])	Ki (human EP1 receptor [2])
CC(C)Cc1cn(-c2nc(-c3nc4ccccc4[nH]3)cs2)c2cc(Br)ccc12 [Example 38, 2-{2-[6-Bromo-3-isobutyl-1H-indol-1-yl]-1,3-thiazol-4-yl}-1H-benzimidazole hydrochloride]	≥ 7.00	≤ 100 nM
CC(C)(C)CCc1cn(-c2nc(-c3nc4ccccc4[nH]3)cs2)c2cc(Cl)ccc12 [Example 37, 2-{2-[6-Chloro-3-(3,3-dimethylbutyl)-1H-indol-1-yl]-1,3-thiazol-4-yl}-1H-benzimidazole hydrochloride]	≥ 7.00	
CC(C)Cc1cn(-c2nc(NC(=O)C(C)(C)C)cs2)c2cc(Cl)ccc12 [Example 4, N-{2-[6-Chloro-3-isobutyl-1H-indoi-1-yl]-1,3-thiazol-4-yl}-2,2-dimethylpropanamide]	≥ 7.00	
CC(C)Cc1cn(-c2nc(-c3nc4ccccc4[nH]3)cs2)c2cc(C(F)(F)F)ccc12 [Example 41, 2-{2-[3-Isobutyl-6-(trifluoromethyl)-1H-indol-1-yl]-1,3-thiazol-4-yl}-1H-benzimidazole]	≥ 7.00	≤ 100 nM
CC(C)Cc1cn(-c2nc(C(=O)Nc3ccccc3CO)cs2)c2cc(Cl)ccc12 [Example 20, 2-[6-Chloro-3-isobutyl-1H-indol-1-yl]-N-[2-(hydroxymethyl)phenyl]-1,3-thiazole-4-carboxamide]	≥ 7.00	≤ 100 nM
CC(C)Cc1cn(-c2nc(-c3nc4cnccc4[nH]3)cs2)c2cc(Cl)ccc12 [Example 43, 2-{2-[6-Chloro-3-isobutyl-1H-indol-1-yl]-1,3-thiazol-4-yl}-1H-imidazo[4,5-c]pyridine hydrochloride]	≥ 7.00	≤ 100 nM
CC(C)Cc1cn(-c2nc(-c3nc4ccccc4[nH]3)cs2)c2cc(Cl)ccc12 [Example 35, 2-{2-[6-Chloro-3-isobutyl-1H-indol-1-yl]-1,3-thiazol-4-yl}-1H-benzimidazole hydrochloride]	≥ 7.00	≤ 100 nM
CC(C)Cc1cn(-c2nc(C(=O)Nc3ccc(CO)cc3)cs2)c2cc(Br)ccc12 [Example 12, 2-[6-Bromo-3-isobutyl-1H-indol-1-yl]-N-[4-(hydroxymethyl)phenyl]-1,3-thiazole-4-carboxamide]	≥ 7.00	≤ 100 nM
CC(C)Cc1cn(-c2nc(NC(=O)c3c(F)cccc3F)cs2)c2cc(Cl)ccc12 [Example 5, N-[2-(6-Chloro-3-isobutyl-1H-indol-1-yl)-1,3-thiazol-4-yl]-2,6-difluorobenzamide]		≤ 100 nM
CC(C)Cc1cn(-c2nc(C(=O)NCCCO)cs2)c2cc(Cl)ccc12 [Example 26, 2-[6-Chloro-3-isobutyl-1H-indol-1-yl]-N-(3-hydroxypropyl)-1,3-thiazole-4-carboxamide]		≤ 100 nM
CC(C)Cc1cn(-c2nc(C(N)=O)cs2)c2cc(Br)ccc12 [Example 32, 2-[6-Bromo-3-isobutyl-1H-indol-1-yl]-1,3-thiazole-4-carboxamide]		≤ 100 nM
CC(C)Cc1cn(-c2nc(-c3ncc[nH]3)cs2)c2cc(Cl)ccc12 [Example 47, 6-Chloro-1-[4-(1H-imidazol-2-yl)-1,3-thiazol-2-yl]-3-isobutyl-1H-indole]	≥ 7.00	
CC(C)Cc1cn(-c2nc(NC(=O)C3CCCC3)cs2)c2cc(Cl)ccc12 [Example 3, N-{2-[6-Chloro-3-isobutyl-1H-indol-1-yl]-1,3-thiazol-4-yl}cyclopentanecarboxamide]	≥ 7.00	
CC(C)Cc1nn(-c2nc(-c3nc4ccccc4[nH]3)cs2)c2cc(Cl)ccc12 [Example 39, 1-[4-(1H-Benzimidazol-2-yl)-1,3-thiazol-2-yl]-6-chloro-3-isobutyl-1H-indazole hydrochloride]	≥ 7.00	
CC(C)Cc1cn(-c2nc(C(=O)Nc3cccc(CO)c3)cs2)c2cc(Cl)ccc12 [Example 24, 2-[6-Chloro-3-isobutyl-1H-indol-1-yl]-N-[3-indol-1-yl]N-[3-(hydroxymethyl)phenyl]-1,3-thiazole-4-carboxamide]		≤ 100 nM
CC(C)Cc1cn(-c2nc(C(N)=O)cs2)c2cc(Cl)ccc12 [Example 30, 2-[6-Chloro-3-isobutyl-1H-indol-1-yl]-1,3-thiazole-4-carboxamide]		≤ 100 nM
CC(C)c1cn(-c2nc(C(=O)Nc3ccccc3N)cs2)c2cc(Cl)ccc12 [Example 13, N-(2-Aminophenyl)-2-[6-chloro-3-isopropyl-1H-indol-1-yl]-1,3-thiazole-4-carboxamide]	≥ 7.00	
CC(C)Cc1cn(Cc2nc(C(N)=O)cs2)c2cc(Cl)ccc12 [Example 34, 2-{[6-Chloro-3-isobutyl-1H-indol-1-yl]methyl}-1,3-thiazole-4-carboxamide]		≤ 100 nM
CC(C)Cc1cn(-c2nc(C(=O)N3CCCC3)cs2)c2cc(Cl)ccc12 [Example 11, 6-Chloro-3-isobutyl-1-[4-(1-pyrrolidinylcarbonyl)-1,3-thiazol-2-yl]-1H-indole]		≤ 100 nM
CC(C)Cc1cn(-c2nc(-c3nc4ncccc4[nH]3)cs2)c2cc(Cl)ccc12 [Example 42, 2-{2-[6-Chloro-3-isobutyl-1H-indol-1-yl]-1,3-thiazol-4-yl}-1H-imidazo[4,5-b]pyridine hydrochloride]	≥ 7.00	
CC(C)Cc1cn(-c2nc(C(=O)Nc3ccccn3)cs2)c2cc(Cl)ccc12 [Example 27, 2-[6-Chloro-3-isobutyl-1H-indol-1-yl]-N-2-pyridinyl-1,3-thiazole-4-carboxamide]		≤ 100 nM
CC(C)Cc1cn(-c2nc(C(=O)Nc3ccc(CO)cc3)cs2)c2cc(Cl)ccc12 [Example 21, 2-[6-Chloro-3-isobutyl-1H-indol-1-yl]-N-[4-(hydroxymethyl)phenyl]-1,3-thiazole-4-carboxamide]	≥ 7.00	
CC(C)Cc1cn(-c2nc(C(=O)Nc3ccc(F)cc3)cs2)c2cc(Cl)ccc12 [Example 29, 2-[6-Chloro-3-isobutyl-1H-indol-1-yl]-N-(4-fluorophenyl)-1,3-thiazole-4-carboxamide]		≤ 100 nM
CC(C)Cc1cn(Cc2nc(-c3nc4ccccc4[nH]3)cs2)c2cc(Cl)ccc12 [Example 40, 2-(2-{[6-Chloro-3-isobutyl-1H-indol-1-yl]methyl}-1,3-thiazol-4-yl)-1H-benzimidazole hydrochloride]	≥ 7.00	≤ 100 nM
CC(C)Cc1cn(-c2nc(-c3nc(-c4ccccc4)c[nH]3)cs2)c2cc(Cl)ccc12 [Example 52, 6-Chloro-3-isobutyl-1-[4-(4-phenyl-1H-imidazol-2-yl)-1,3-thiazol-2-yl]-1H-indole]		≤ 100 nM
